# Data from ChEMBL document CHEMBL1201862, “PubChem BioAssay data set” (2004).
#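 Cells were grown in 96-well plates and exposed to each compound for 48 hours at five concentrations; endpoints were interpolated linearly between bracketing concentrations, or set to the highest concentration if not reached. GI50 marks 50% less growth.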 The source made the active and inactive calls. Rule as the data show it: active = GI50 up to about 1.1 µM and inactive = higher. Where a SMILES comes first, the peptide text is derived from it. [ ]: non-standard residue; d: D form. The star is where a group is joined. ξ: configuration not given here. ξPhe(4-NO2) = NC(Cc1ccc([N+](=O)[O-])cc1)C(=O)O; Boc = CC(C)(C)OC(=O)*
# What was measured:
# Assay in all cases: NCI tumour cell line growth inhibition, 48 h
# HL-60 = tested on: HL-60
# M14 = tested on: M14
# HCT-15 = tested on: HCT-15
# CAKI-1 = tested on: CAKI-1
# SK-MEL-28 = tested on: SK-MEL-28
# HCC 2998 = tested on: HCC 2998
# A498 = tested on: A498
# MDA-N = tested on: MDA-N
# SK-MEL-5 = tested on: SK-MEL-5
# SK-OV-3 = tested on: SK-OV-3
# SF-539 = tested on: SF-539
# A549 = tested on: A549
# Hs-578T = tested on: Hs-578T
# U-251 = tested on: U-251
# OVCAR-3 = tested on: OVCAR-3
# HOP-92 = tested on: HOP-92
# OVCAR-4 = tested on: OVCAR-4
# EKVX = tested on: EKVX
SMILES,GI50 (HL-60),GI50 (M14),GI50 (HCT-15) [µM],GI50 (CAKI-1),GI50 (SK-MEL-28),GI50 (HCC 2998),GI50 (A498),GI50 (MDA-N),GI50 (SK-MEL-5),GI50 (SK-OV-3),GI50 (SF-539),GI50 (A549),GI50 (Hs-578T),GI50 (U-251),GI50 (OVCAR-3),GI50 (HOP-92),GI50 (OVCAR-4),GI50 (EKVX)
CCCCCCCCCCCCCCCCCCNc1ccn(C2OC(CO)C(O)C2O)c(=O)n1 (centres undefined),2.49 µM (inactive),55.5 µM (inactive),> 100,> 100 µM (inactive),> 100 µM (inactive),50.5 µM (inactive),> 100 µM (inactive),> 100 µM (inactive),> 100 µM (inactive),> 100 µM (inactive),> 100 µM (inactive),79.8 µM (inactive),> 28.8 µM (inactive),38.6 µM (inactive),> 100 µM (inactive),> 100 µM (inactive),> 100 µM (inactive),> 100 µM (inactive)
S=C=NCc1ccccc1 [BENZYL ISOTHIOCYANATE],1.86 µM (inactive),1.67 µM (inactive),3.36,1.85 µM (inactive),3.08 µM (inactive),8.28 µM (inactive),4.13 µM (inactive),1.18 µM (inactive),2.81 µM (inactive),11 µM (inactive),1.82 µM (inactive),4.49 µM (inactive),7.08 µM (inactive),3.07 µM (inactive),2.75 µM (inactive),5.77 µM (inactive),3.8 µM (inactive),14.6 µM (inactive)
CCCCCC(=O)Nc1[nH]nnc1C#N,> 100 µM (inactive),> 100 µM (inactive),> 100,> 100 µM (inactive),> 100 µM (inactive),> 100 µM (inactive),> 100 µM (inactive),> 100 µM (inactive),> 100 µM (inactive),> 100 µM (inactive),> 100 µM (inactive),> 100 µM (inactive),> 100 µM (inactive),> 100 µM (inactive),> 100 µM (inactive),> 100 µM (inactive),> 100 µM (inactive),> 100 µM (inactive)
COc1cc2c(cc1OC)C(=O)/C(=C/c1cc(Cl)cc(Cl)c1)C2,1.35 µM (inactive),4.18 µM (inactive),3.03,4.33 µM (inactive),61.7 µM (inactive),0.351 µM (active),17 µM (inactive),1.57 µM (inactive),2.54 µM (inactive),,2.49 µM (inactive),12.1 µM (inactive),11.3 µM (inactive),5.32 µM (inactive),3.33 µM (inactive),18.7 µM (inactive),17.1 µM (inactive),19.8 µM (inactive)
COc1ccc(CNc2ccn(C3OC(CO)C(O)C3O)c(=O)n2)cc1 (centres undefined),27.2 µM (inactive),50.5 µM (inactive),> 100,> 100 µM (inactive),> 100 µM (inactive),48.8 µM (inactive),> 100 µM (inactive),49.9 µM (inactive),62.5 µM (inactive),> 100 µM (inactive),> 100 µM (inactive),> 100 µM (inactive),> 100 µM (inactive),> 100 µM (inactive),> 100 µM (inactive),47.1 µM (inactive),37.2 µM (inactive),73.5 µM (inactive)
COC(=O)/C=C1/OC(c2ccc(C)cc2C)=CC1=O,2.74 µM (inactive),15.6 µM (inactive),13.9,19.5 µM (inactive),19.5 µM (inactive),16.7 µM (inactive),20.7 µM (inactive),15.2 µM (inactive),16.4 µM (inactive),18.7 µM (inactive),17.2 µM (inactive),,33.4 µM (inactive),17.4 µM (inactive),26.9 µM (inactive),16.6 µM (inactive),> 10 µM (inactive),65 µM (inactive)
CC(CO)CCNc1ncnc2c1ncn2CCC#N (centres undefined),> 100 µM (inactive),> 100 µM (inactive),,> 100 µM (inactive),> 100 µM (inactive),> 100 µM (inactive),> 100 µM (inactive),> 100 µM (inactive),> 100 µM (inactive),> 100 µM (inactive),> 100 µM (inactive),> 100 µM (inactive),> 100 µM (inactive),,> 100 µM (inactive),> 100 µM (inactive),> 100 µM (inactive),> 100 µM (inactive)
Cn1c(-c2ccccc2)cc2c3ccsc3c3ccsc3c21,> 100 µM (inactive),> 100 µM (inactive),29.2,> 100 µM (inactive),> 100 µM (inactive),> 100 µM (inactive),> 100 µM (inactive),> 100 µM (inactive),> 100 µM (inactive),> 100 µM (inactive),> 100 µM (inactive),> 100 µM (inactive),> 100 µM (inactive),> 100 µM (inactive),> 100 µM (inactive),> 100 µM (inactive),> 100 µM (inactive),
C[C@@H]1O[C@@H]2OCC[C@@H]2C2=C1C(=O)c1ccccc1C2=O,3.51 µM (inactive),3.98 µM (inactive),15.6,15.2 µM (inactive),13.9 µM (inactive),17.9 µM (inactive),18 µM (inactive),1.85 µM (inactive),5.94 µM (inactive),28.4 µM (inactive),8.85 µM (inactive),19 µM (inactive),28.1 µM (inactive),7.53 µM (inactive),3.08 µM (inactive),4.38 µM (inactive),4.14 µM (inactive),19.8 µM (inactive)
N=c1oc2c(Cl)cc(Cl)cc2cc1C(=O)Nc1cccc2ccccc12,18.8 µM (inactive),> 44.7 µM (inactive),10.3,10.6 µM (inactive),> 80.9 µM (inactive),6.93 µM (inactive),7.62 µM (inactive),33 µM (inactive),37.9 µM (inactive),15.9 µM (inactive),,6.55 µM (inactive),7.94 µM (inactive),2.73 µM (inactive),4.61 µM (inactive),15.3 µM (inactive),2.49 µM (inactive),8.93 µM (inactive)
CCNC(=O)CNC(=O)C(Cc1ccc([N+](=O)[O-])cc1)NC(=O)OC(C)(C)C (centres undefined) (Boc-[ξPhe(4-NO2)]-Gly-NHEt),> 100 µM (inactive),> 100 µM (inactive),> 100,> 100 µM (inactive),> 100 µM (inactive),> 100 µM (inactive),53.6 µM (inactive),> 100 µM (inactive),> 100 µM (inactive),> 100 µM (inactive),,> 100 µM (inactive),> 100 µM (inactive),> 100 µM (inactive),> 100 µM (inactive),> 100 µM (inactive),> 100 µM (inactive),> 100 µM (inactive)
O=[N+]([O-])c1cc2c(c3nonc13)OCCCCO2,2.55 µM (inactive),5 µM (inactive),2.94,14.3 µM (inactive),9.89 µM (inactive),17.3 µM (inactive),24.9 µM (inactive),4.13 µM (inactive),8.61 µM (inactive),26.4 µM (inactive),2.82 µM (inactive),10.3 µM (inactive),12.3 µM (inactive),7.1 µM (inactive),2.19 µM (inactive),12.7 µM (inactive),14.2 µM (inactive),18.2 µM (inactive)
C/C(Sc1ccccc1)=C1/CCCN(Cc2ccccc2)C1,13.7 µM (inactive),11.9 µM (inactive),14.2,24.9 µM (inactive),23.8 µM (inactive),17.2 µM (inactive),37.8 µM (inactive),22.6 µM (inactive),14.3 µM (inactive),32.7 µM (inactive),28 µM (inactive),32.7 µM (inactive),16.3 µM (inactive),20.5 µM (inactive),16.6 µM (inactive),17.5 µM (inactive),35.2 µM (inactive),32.3 µM (inactive)
O=C(/C=C/c1ccc(Cl)c(Cl)c1)Oc1ccc(/C=C2\CCCCC2=O)cc1,25.4 µM (inactive),> 100 µM (inactive),> 100,> 100 µM (inactive),> 100 µM (inactive),> 100 µM (inactive),> 100 µM (inactive),> 100 µM (inactive),> 100 µM (inactive),,> 100 µM (inactive),> 100 µM (inactive),> 100 µM (inactive),> 100 µM (inactive),> 100 µM (inactive),> 100 µM (inactive),> 100 µM (inactive),> 100 µM (inactive)
COc1ccccc1N1CCN(CCCCNC(=O)c2ccc([N+](=O)[O-])o2)CC1,5.86 µM (inactive),4.05 µM (inactive),3.48,13.4 µM (inactive),25.1 µM (inactive),2.42 µM (inactive),9.79 µM (inactive),3.18 µM (inactive),6.75 µM (inactive),15.9 µM (inactive),6.1 µM (inactive),6.98 µM (inactive),15.5 µM (inactive),7.55 µM (inactive),4.52 µM (inactive),16.6 µM (inactive),12.5 µM (inactive),16 µM (inactive)
COC(=O)[C@H](Cc1ccccc1)NC(=O)N1CCN(C(=O)N[C@@H](Cc2ccccc2)C(=O)OC)CCN(C(=O)N[C@@H](Cc2ccccc2)C(=O)OC)CC1,> 100 µM (inactive),> 100 µM (inactive),> 100,> 100 µM (inactive),> 100 µM (inactive),> 100 µM (inactive),> 100 µM (inactive),> 100 µM (inactive),> 100 µM (inactive),> 100 µM (inactive),,> 100 µM (inactive),> 100 µM (inactive),> 100 µM (inactive),> 100 µM (inactive),> 100 µM (inactive),> 100 µM (inactive),> 100 µM (inactive)
